Data on 17 compounds can be found in paper PMC8398847, “Isavuconazole: Thermodynamic Evaluation of Processes Sublimation, Dissolution and Partition in Pharmaceutically Relevant Media” (Molecules, 2021).

For data set [1] the following is noted: 298.15 K, cited from earlier work; for sublimation Gibbs energy (Table S1) / sublimation enthalpy (Table S1): IVZ cluster, ref Table S1 [1]-[16]; for sublimation Gibbs energy (kJ∙mol-1, Table S2) / sublimation enthalpy (first kJ∙mol-1 column, Table S2): bicalutamide cluster.
On the set-up of data set [2]: method as in earlier work. The conditions noted are these: cited from earlier work.
A short description of data set [3]: Vapor pressure by transpiration (inert gas-carrier transfer) method; sublimation thermodynamic functions. Format: physicochemical. To be noted: test of the technique with the standard. On the procedure:
The thermodynamic functions of sublimation were calculated as the fitting coefficients of the Clarke and Glew equation [17]:(1) Rlnp/p^0=ΔcrgGm°(θ)/θ+ΔcrgHm°(θ)(1/θ−1/T)+ΔcrgCp,m°(θ)(θ/T−1+lnT/θ) where ΔcrgHm°(θ) is the standard molar sublimation enthalpy, ΔcrgGm°(θ) is the standard molar Gibbs energy of sublimation, and ΔcrgCp,m°(θ) is the difference between the constant pressure standard molar heat capacity Cp,m°(g) of the gaseous compound and the constant pressure standard molar heat capacity Cp,m°(cr) of the crystalline compound. The value is the arbitrary reference temperature θ = 298.15 K; p^0 = 10^5 Pa is the reference pressure.
The transpiration method was used for the sublimation experiment. A stream of an inert gas (nitrogen) was passed over a sample at the constant temperature and flow rate; saturation of the gas with the substance vapor was achieved by low transpiration rate of gas. Then, the sublimated quantity of condensed vapor was determined. The volume of the inert gas and the amount of the sublimated material were used for calculation the vapor pressure over the sample of compound at this temperature. The following procedure was used for determination the amount of sublimed substance. The condensed sample was dissolved in a known volume of solvent Vsol. The mass of the substance was determined by the measurement of absorbance A of its solution (spectrophotometer Cary-50, Varian, Palo Alto, CA, USA, Software Version 3.00 (339)). According to the Lambert–Beer law the concentration of the solution c (mol·L^−1) can express knowing a value of the extinction coefficient ε (l·mol^−1·cm^−1) of the studied compound dissolved in the solvent and an absorbing path length (l):A = εcl(5) where l is an absorbing path length. Calculation the mass of sublimed compound was performed according to the equation:m = cVsolM(6)
M is the molar mass of the studied substance.
The vapor pressure p at each temperature was determined from the amount of the substance collected within a known time:p = mRTa/VM(7) where V is the volume of the gaseous nitrogen evaluated from the time measurement and the flow rate at the flow meter temperature Ta and the atmospheric pressure. Uncertainties for transpiration experiment parameters (T, m, Ta, V) are reported as standard deviations (Table 1). The combined standard uncertainty of vapor pressure measurements were estimated taking into account uncertainties of all variables involved in eq 7.
The details of equipment and experimental procedure are given in [33]. The sublimation technique was tested with benzoic acid as standard. The experimental vapor pressure values were obtained in the temperature interval of (307–385) K and were in good agreement with the results of studies within the limits of experimental error (Figure S7). The standard sublimation enthalpy of benzoic acid measured by us was 90.5 ± 0.3 kJ·mol^−1 and consistent with recommended by IUPAC value—89.7 ± 0.5 kJ·mol^−1 [38]. Each experiment at fixed temperature was repeated three times with the standard deviation of up to 5%.

Molecules are shown by their SMILES. Values joined by “and” are separate entries in the source; they are usually repeats but may differ in a detail not shown here. Equal values may be shown once.

In the case of `Fc1ccccc1-c1ccccc1F` [2,2'-difluorobiphenyl], in data set [1], the “sublimation Gibbs energy (Table S1)” value is 7.72 kcal/mol; the “sublimation enthalpy (Table S1)” value is 22.7 kcal/mol; the “sublimation Gibbs energy (kJ∙mol-1, Table S2)” value is 32.3 kJ/mol; the “sublimation enthalpy (first kJ∙mol-1 column, Table S2)” value was 95 kJ/mol.

As for `CC12CC3CC(C)(C1)CC(NS(=O)(=O)c1ccc(C(F)(F)F)cc1)(C3)C2` [N-(3,5-Dimethyl-adamantan-1-yl)-4-trifluoromethyl-benzenesulfonamide], in data set [1], the “sublimation Gibbs energy (kJ∙mol-1, Table S2)” value is 49.6 kJ/mol and the “sublimation enthalpy (first kJ∙mol-1 column, Table S2)” value is 107.7 kJ/mol.

Regarding `CC(=O)Nc1ccc(O)cc1` [Paracetamol], in data set [1], the “sublimation Gibbs energy (kJ∙mol-1, Table S2)” value was 60 kJ/mol and the “sublimation enthalpy (first kJ∙mol-1 column, Table S2)” value was 117.9 kJ/mol.

Take `CC(=O)Nc1ccccc1O` [2'-Hydroxyacetanilide]: in data set [1], the “sublimation Gibbs energy (kJ∙mol-1, Table S2)” value is 52.8 kJ/mol and the “sublimation enthalpy (first kJ∙mol-1 column, Table S2)” value was 121.8 kJ/mol.

In the case of `Cc1cccc(Nc2ccccc2C(=O)O)c1C` [Mefenamic Acid], in data set [1], the “sublimation Gibbs energy (kJ∙mol-1, Table S2)” value was 59.2 kJ/mol and the “sublimation enthalpy (first kJ∙mol-1 column, Table S2)” value was 136.3 kJ/mol.

As for `Fc1ccc(-c2ccc(F)cc2)cc1` [4,4'-difluorobiphenyl], in data set [1], the “sublimation Gibbs energy (Table S1)” value was 7.22 kcal/mol; the “sublimation enthalpy (Table S1)” value was 21.8 kcal/mol; the “sublimation Gibbs energy (kJ∙mol-1, Table S2)” value is 30.2 kJ/mol; the “sublimation enthalpy (first kJ∙mol-1 column, Table S2)” value is 91.2 kJ/mol.

With `CC(=O)Nc1ccccc1C(=O)O` [2-(acetylamino)-Benzoic acid], in data set [1], the “sublimation Gibbs energy (kJ∙mol-1, Table S2)” value is 54.4 kJ/mol and the “sublimation enthalpy (first kJ∙mol-1 column, Table S2)” value is 115.5 kJ/mol.

For `CC(=O)Nc1ccc(Br)cc1` [4'-Bromoacetanilide], in data set [1], the “sublimation Gibbs energy (kJ∙mol-1, Table S2)” value was 51.2 kJ/mol and the “sublimation enthalpy (first kJ∙mol-1 column, Table S2)” value is 113.4 kJ/mol.

With `CC(=O)Nc1cccc2ccccc12` [N-acetyl-1-naphthylamine], in data set [1], the “sublimation Gibbs energy (kJ∙mol-1, Table S2)” value was 47.9 kJ/mol; the “sublimation enthalpy (first kJ∙mol-1 column, Table S2)” value was 94 kJ/mol and 94.1 kJ/mol.

Regarding `CC(=O)c1ccc(F)cc1` [p-fluoroacetophenone], in data set [1], the “sublimation Gibbs energy (Table S1)” value is 4.21 kcal/mol and the “sublimation enthalpy (Table S1)” value was 17.1 kcal/mol.

In the case of `CC(=O)Nc1ccc(C)cc1` [N-(4-methylphenyl)acetamide], in data set [1], the “sublimation Gibbs energy (kJ∙mol-1, Table S2)” value was 44.5 kJ/mol and the “sublimation enthalpy (first kJ∙mol-1 column, Table S2)” value was 99 kJ/mol.

`O=C(O)c1ccccc1` [benzoic acid]: the “standard sublimation enthalpy recommended by IUPAC” value in data set [2] was 21.4 ± 0.12 kcal/mol. In data set [3], the standard sublimation enthalpy turned out to be 21.6 ± 0.072 kcal/mol.

In the case of `CC(C(=O)O)c1ccc(-c2ccccc2)c(F)c1` (stereo not shown) [Flurbiprofen], in data set [1], the “sublimation Gibbs energy (Table S1)” value is 12.7 kcal/mol and the “sublimation enthalpy (Table S1)” value is 26.34 kcal/mol.

Regarding `CC(O)(CS(=O)(=O)c1ccc(F)cc1)C(=O)Nc1ccc(C#N)c(C(F)(F)F)c1` (stereo not shown) [Bicalutamide], in data set [1], the “sublimation Gibbs energy (Table S1)” value was 15.2 kcal/mol; the “sublimation enthalpy (Table S1)” value is 29.8 kcal/mol; the “sublimation Gibbs energy (kJ∙mol-1, Table S2)” value is 63.7 kJ/mol; the “sublimation enthalpy (first kJ∙mol-1 column, Table S2)” value is 124.7 kJ/mol.

In the case of `CC(=O)NCC(=O)Nc1ccccc1` [acetylglycine anilide], in data set [1], the “sublimation Gibbs energy (kJ∙mol-1, Table S2)” value was 59.9 kJ/mol and the “sublimation enthalpy (first kJ∙mol-1 column, Table S2)” value is 125.4 kJ/mol.

In the case of `N#Cc1ccc2ccccc2c1` [2-Naphthalenecarbonitrile], in data set [1], the “sublimation Gibbs energy (Table S1)” value was 8.08 kcal/mol and the “sublimation enthalpy (Table S1)” value is 22 kcal/mol.

Take `O=C(O)c1cc(-c2ccc(F)cc2F)ccc1O` [Diflunisal (Form A), Diflunisal]: in data set [1], the “sublimation Gibbs energy (kJ∙mol-1, Table S2)” value was 57.6 kJ/mol and the “sublimation enthalpy (first kJ∙mol-1 column, Table S2)” value is 120.1 kJ/mol.
